From PMC5439695 (PLoS ONE, 2017)
Values joined by “and” are separate entries in the source; they are usually repeats but may differ in a detail not shown here. Identical values can stand only once. Like-named read-outs stand apart in the source and are kept apart here.

Tests used:
[1] = tested on: HEK293 and HepG2 cell lines
HepG2 cells [2] = details: for IC50: HepG2, glo, n=136
HepG2 cells [3] = test: CellTox Green Cytotoxicity Assay (flor) in HepG2, HepG2[flor]; type: cell-based, human; details: HepG2, flor, n=136, read-out: EC50
HEK293 cells [4] = details: HEK293, glo, mean and SD, n=136
HEK293 cells [5] = details: HEK293, flor, mean and SD, n=136
[6] = POD potency, max over real-time cytotoxicity assays
[7] = POD potency, median over real-time cytotoxicity assays
[8] = HEK293[glo], HEK293[flor], HepG2[glo], HepG2[flor]

Compound	Cyto(realtime)_max [1, 6]	Cyto(realtime)_median [1, 7]	other results
CCCCCCCCCCCCn1cc[n+](C)c1.F[B-](F)(F)F	6.57 log10(M)*-1	4.55 log10(M)*-1	
CCCCCCCCCCCCn1cc[n+](C)c1.O=S(=O)([O-])C(F)(F)F	6.68 log10(M)*-1	4.57 log10(M)*-1	
CCCCCCCCCCCCCCCC[N+](C)(C)C.[Cl-]	5.58 log10(M)*-1	4.79 log10(M)*-1	
CCCCCCCCCCCCCCCCn1cc[n+](C)c1.F[B-](F)(F)F	6.28 log10(M)*-1	4.62 log10(M)*-1	
CCCCCCCCCCCCCC[n+]1ccn(C)c1.[Cl-]	6.67 log10(M)*-1	4.69 log10(M)*-1	
CCCCCCCCCCCCCC[N+](C)(C)C.[Cl-]	5.94 log10(M)*-1	4.88 log10(M)*-1	
CCCCCCCCCCCCCC[P+](CCCC)(CCCC)CCCC.CCCCCCCCCCCCc1ccc(S(=O)(=O)[O-])cc1	6.97 log10(M)*-1	5.03 log10(M)*-1	
CCCCCCCCCCCCCC[P+](CCCCCC)(CCCCCC)CCCCCC.N#C[N-]C#N	5.83 log10(M)*-1	4.81 log10(M)*-1	
1-Ethyl-3-methylimidazolium diethylphosphate			Cyto(realtime)_max [1]: 6.32 log10(M)*-1; Cyto(realtime)_median [1]: 4.65 log10(M)*-1
N=C1NC(=N)c2cc3ccccc3cc21 [1,3-Diiminobenz(f)isoindoline]	4.75 log10(M)*-1	4.40 log10(M)*-1	
CCCC[n+]1ccc(C)cc1.[Cl-] [1-Butyl-4-methylpyridinium chloride]	5.01 log10(M)*-1	4.39 log10(M)*-1	
CCCCCCCCCCCCn1cc[n+](C)c1.[Cl-] [1-Dodecyl-3-methylimidazolium chloride]	7.06 log10(M)*-1	4.44 log10(M)*-1	
OCC(c1ccc(Cl)cc1)c1ccc(Cl)cc1 [2,2-Bis(4-chlorophenyl)ethanol]	4.70 log10(M)*-1	4.57 log10(M)*-1	
CCCCC(CC)COC(=O)c1ccc(O)cc1 (stereo not drawn) [2-Ethylhexylparaben]	4.68 log10(M)*-1	4.25 log10(M)*-1	
Cl.Cl.Nc1ccc(-c2ccc(N)c(Cl)c2)cc1Cl [3,3'-Dichlorobenzidine dihydrochloride]	5.37 log10(M)*-1	4.59 log10(M)*-1	
CC(C)(C)CC(C)(C)c1ccc(O)cc1 [4-(1,1,3,3-tetramethylbutyl)phenol, reference compound]			cytotoxicity kinetics activity profile in the four real-time cytotoxicity assays [1, 8]: quickly reach the maximum cytotoxic effect in at least three assays
O=[N+]([O-])C1(Br)COCOC1 [5-Bromo-5-nitro-1,3-dioxane]	4.72 log10(M)*-1	4.41 log10(M)*-1	
CC/C(=C(\c1ccc(O)cc1)c1ccc(OCCN(C)C)cc1)c1ccccc1 [(Z)-4-Hydroxytamoxifen]	4.89 log10(M)*-1	4.45 log10(M)*-1	
CC=O [Acetaldehyde]	6.67 log10(M)*-1	4.54 log10(M)*-1	
C=C(c1ccc(C(=O)O)cc1)c1cc2c(cc1C)C(C)(C)CCC2(C)C [Bexarotene]			Cyto(realtime)_max [1]: 4.68 log10(M)*-1; Cyto(realtime)_median [1]: 4.23 log10(M)*-1
C[C@]12CC[C@@H]3c4ccc(O)cc4C[C@@H](CCCCCCCCC[S+]([O-])CCCC(F)(F)C(F)(F)F)[C@H]3[C@@H]1CC[C@@H]2O (stereo partly drawn) [fulvestrant, reference compound]			cytotoxicity kinetics activity profile in the four real-time cytotoxicity assays ([1]; human): solely active, HEK293[glo]
CO[C@@]12[C@H](COC(N)=O)C3=C(C(=O)C(C)=C(N)C3=O)N1C[C@@H]1N[C@@H]12 [mitomycin C, reference compound]			activity in the assay (cytotoxic effect) (HepG2 cells [2]): active
ClC(Cl)=C(c1ccc(Cl)cc1)c1ccc(Cl)cc1 [p,p'-DDE, reference compound]			cytotoxicity kinetics activity profile in the four real-time cytotoxicity assays [1, 8]: quickly reach the maximum cytotoxic effect in at least three assays
CCCCCCCC[N+](CCCCCCCC)(CCCCCCCC)CCCCCCCC [tetra-N-octylammonium bromide, reference compound]			EC50 (HepG2 cells [3]; 8 hrs): 7.59 ± 1.48 µM; EC50 (HepG2 cells [3]; 16 hrs): 6.18 ± 1.27 µM; EC50 (HepG2 cells [3]; 24 hrs): 5.87 ± 1.1 µM; EC50 (HepG2 cells [3]; 32 hrs): 6.43 ± 1 µM; EC50 (HepG2 cells [3]; 40 hrs): 6.4 ± 0.96 µM; IC50 (HEK293 cells [4]; 8 hrs): 5.91 ± 1.26 µM; IC50 (HEK293 cells [4]; 16 hrs): 2.53 ± 0.74 µM; IC50 (HEK293 cells [4]; 24 hrs): 1.34 ± 0.52 µM; IC50 (HEK293 cells [4]; 32 hrs): 0.87 ± 0.44 µM; IC50 (HEK293 cells [4]; 40 hrs): 0.79 ± 0.32 µM; EC50 (HEK293 cells [5]; 8 hrs): 9.88 ± 2.1 µM; EC50 (HEK293 cells [5]; 16 hrs): 8.01 ± 1.52 µM; EC50 (HEK293 cells [5]; 24 hrs): 6.06 ± 1.11 µM; EC50 (HEK293 cells [5]; 32 hrs): 6.8 µM and 6.73 µM; EC50 (HEK293 cells [5]; 40 hrs): 7.69 ± 1.76 µM; IC50 (HepG2 cells [2]; 8 hrs): 7.9 ± 1.62 µM; IC50 (HepG2 cells [2]; 16 hrs): 7.53 ± 1.44 µM; IC50 (HepG2 cells [2]; 24 hrs): 7.79 ± 1.54 µM; IC50 (HepG2 cells [2]; 32 hrs): 8.05 ± 1.68 µM; IC50 (HepG2 cells [2]; 40 hrs): 8.18 ± 1.91 µM
C=CC1(C)OC(=O)N(c2cc(Cl)cc(Cl)c2)C1=O (stereo not drawn) [vinclozolin, reference compound]			cytotoxicity kinetics activity profile in the four real-time cytotoxicity assays [1]: no activity in all four real-time cytotoxicity assays
Bis(tributyltin)oxide			Cyto(realtime)_max [1]: 7.21 log10(M)*-1; Cyto(realtime)_median [1]: 6.40 log10(M)*-1
C.I. Solvent Black 5	5.68 log10(M)*-1	4.42 log10(M)*-1	
Triethyltin bromide			Cyto(realtime)_max [1]: 6.72 log10(M)*-1; Cyto(realtime)_median [1]: 5.42 log10(M)*-1
